According to US12378320B2, “Methods for treating pancreatitis” (Cold Spring Harbor Laboratory, priority 2018, dated 2025):

Assays:
C^PDX;R^LSL;F mice = assay: CA19-9 mediated pancreatitis in Dox-treated C^PDX;R^LSL;F mice (H&E, serum amylase and lipase, pEGFR IHC); type: in vivo, mouse
Method: All animal experiments were conducted in accordance with procedures approved by the IACUC at Cold Spring Harbor Laboratory. Mice were enrolled onto experimental studies between 6 and 8 weeks of age. Mice were administered Doxycycline through drinking water (0.5-2 mg/ml) supplemented with 10 mg/ml Sucrose for study durations up to one week. […] EdU (300 μg, Santa Cruz) was intraperitoneally administered bi-daily for three consecutive days. Cerulein was administered in 8 hourly doses of 200 μl (10 μg/ml) intraperitoneally for 48 hours and C57Bl/6J mice were allowed to recover for 24 or 72 hours.
Formalin-fixed, paraffin-embedded blocks were sectioned and de-paraffinized. Antigen retrieval was performed in Citrate buffer for 6 minutes in a pressure cooker unless otherwise specified. […] The slides were then rinsed in tap water and transferred to the Cadenza system. Slides were blocked in 3% BSA in TBST for one hour at room temperature and incubated in primary antibody overnight. Slides were washed three times in TBST, then incubated in horse radish peroxidase-conjugated secondary antibody for one hour at room temperature. The slides were washed three times in TBST and disassembled from the Cadenza system. ImmPACT DAB (Vector) was incubated for 1-10 minutes followed by a water wash and incubation in Hematoxylin counterstain. The slides were then dehydrated and coverslipped in cytoseal 60.
Slides were scanned using an Aperio CS2 scanner (Leica) and the total occupied pixel area was calculated in Imagescope (Leica). Affected pancreatitis areas on H&E stained slides were manually annotated and the uninvolved and affected areas were measured. Pancreatitis areas were defined by the presence of infiltrating lymphocytes, acinar intralobular swelling, acinar to ductal metaplasia, fibrosis and fat cell replacement. The number of Ki67-positive nuclei were counted manually in five representative high-powered fields from least four animals per group.
Amylase and Lipase levels in plasma (lithium heparin, BD biosciences) was measured by IDEXX Pathology services. CA19-9 levels were measured using the human cancer biomarker assay (EMD Millipore) on the MagPIX multiplex ELISA platform (Luminex). Blood glucose levels were measured using an Accu-Chek Nano monitor (Roche) on the lateral saphenous vein. […] The CA19-9 coated plates were washed in 0.05% Tween 20 in PBS and blocked in 1% BSA in wash buffer before incubation 10 μl of mouse plasma in a final volume of 100 μl of blocking buffer

C57Bl/6J mice [1] = type: in vivo; settings: Sucrose or Dox Sucrose, Vehicle or Erlotinib
Method: KPC mice (Kras^+/LSL-G12D; Trp53^+/R172H; Pdx1-Cre) have been described previously (Hingorani S R, et al., Cancer Cell. 2003; 4(6):437-50; Hingorani S R, et al., Cancer Cell. 2005; 7(5):469-83) and were backcrossed onto the C57Bl/6J background (The Jackson Laboratory, strain 000664). All animal experiments were conducted in accordance with procedures approved by the IACUC at Cold Spring Harbor Laboratory. Mice were enrolled onto experimental studies between 6 and 8 weeks of age. Mice were administered Doxycycline through drinking water (0.5-2 mg/ml) supplemented with 10 mg/ml Sucrose for study durations up to one week. Doxycycline was administered through chow for experimental studies longer than one week, which is designed to deliver 2-3 mg of doxycycline per day based on the consumption of 4-5 g/day per mouse (Harlan Teklad, dietTD.01306, Doxycycline 625 mg). […] Blood glucose levels were measured using the ACCU-CHECK Nano (Roche) on the 414 lateral saphenous vein.
Amylase and Lipase levels in plasma (lithium heparin, BD biosciences) was measured by IDEXX Pathology services. CA19-9 levels were measured using the human cancer biomarker assay (EMD Millipore) on the MagPIX multiplex ELISA platform (Luminex). Blood glucose levels were measured using an Accu-Chek Nano monitor (Roche) on the lateral saphenous vein. […]

C57Bl/6J mice [2] = assay: Cerulein model of acute pancreatitis, immune cell types by flow cytometry; type: in vivo, mouse; settings: for immune cell type representation in the spleen or lymph nodes / immune cells in the pancreas following induction of pancreatitis: flow cytometry
Method: KPC mice (Kras^+/LSL-G12D; Trp53^+/R172H; Pdx1-Cre) have been described previously (Hingorani S R, et al., Cancer Cell. 2003; 4(6):437-50; Hingorani S R, et al., Cancer Cell. 2005; 7(5):469-83) and were backcrossed onto the C57Bl/6J background (The Jackson Laboratory, strain 000664). All animal experiments were conducted in accordance with procedures approved by the IACUC at Cold Spring Harbor Laboratory. Mice were enrolled onto experimental studies between 6 and 8 weeks of age. Mice were administered Doxycycline through drinking water (0.5-2 mg/ml) supplemented with 10 mg/ml Sucrose for study durations up to one week. Doxycycline was administered through chow for experimental studies longer than one week, which is designed to deliver 2-3 mg of doxycycline per day based on the consumption of 4-5 g/day per mouse (Harlan Teklad, dietTD.01306, Doxycycline 625 mg). EdU (300 μg, Santa Cruz) was intraperitoneally administered bi-daily for three consecutive days. Cerulein was administered in 8 hourly doses of 200 μl (10 μg/ml) intraperitoneally for 48 hours and C57Bl/6J mice were allowed to recover for 24 or 72 hours. Blood glucose levels were measured using the ACCU-CHECK Nano (Roche) on the 414 lateral saphenous vein.
Spleens and lymph nodes were mechanically dissociated, homogenized, and passed through a nylon cell strainer (BD Falcon) in FACS buffer (eBioscience). Pancreas were mechanically dissociated and digested with 0.4 mg/mL liberase, 0.05 mg/mL collagenase D, and 0.1 mg/mL DNase I (Roche) in DMEM (Gibco) supplemented with 10% FCS at 37° C. for 30 min and suspensions were passed through a nylon cell strainer.
Staining was performed by incubating cells on a plate shaker, for 15 min at 4° C., with antibodies in FACS buffer (eBioscience). Multicolor flow cytometric analyses were performed using a LSR Fortessa cytometer (BD Biosciences). Gating strategies for all flow cytometric experiments are further described below.

Row | Molecule | ability to substitute for anti-CA19-9 therapy (C^PDX;R^LSL;F mice; Erlotinib 24 hours prior to the induction of pancreatitis) | weight loss (C^PDX;R^LSL;F mice; Erlotinib 24 hours prior to the induction of pancreatitis, humane end point prior to study completion) | pancreatic atrophy at necropsy (C^PDX;R^LSL;F mice; Erlotinib plus Dox) | vacuolization of the acinar compartment by histology (C^PDX;R^LSL;F mice; Erlotinib plus Dox) | relation of the effects to Erlotinib toxicity in normal mice (C57Bl/6J mice [1]) | immune cell type representation in the spleen or lymph nodes (C57Bl/6J mice [2]) | immune cells in the pancreas following induction of pancreatitis (C57Bl/6J mice [2]) | immune cell type representation in the spleen or lymph nodes (C57Bl/6J mice [2]; listed as cerulein) | immune cells in the pancreas following induction of pancreatitis (C57Bl/6J mice [2]; listed as cerulein) | recruitment of T- or B-cells (C57Bl/6J mice [2]; time points examined 1-3 days)
1 | C#Cc1cccc(Nc2ncnc3cc(OCCOC)c(OCCOC)cc23)c1 [Erlotinib] | unable to substitute | more than 20% | evident | apparent | unrelated to toxicity |  |  |  |  | 
2 | Cerulein |  |  |  |  |  | without change | influx of inflammatory monocytes and macrophages | without any change | treatment-dependent influx of inflammatory monocytes and macrophages | Neither model exhibited recruitment
